# Measurements reported in patent US11439708B2, “Nanotube trans-membrane channels mimicking biological porins” (LAWRENCE LIVERMORE NATIONAL SECURITY, LLC, priority 2014, dated 2022).
# Legend:
# [1] = Single channel recordings of conductance in supported lipid bilayer; format: biochemical; details: 1 M KCl, transmembrane potential 75 mV, positive control
# [2] = set-up: unit not given here; details: literature value (ref 30); cited from earlier work
substance,measurement,setting,value
gramicidin A,conductance of Gramicidin channels,[1],0.058±0.008 nS
same,reported conductance of gramicidin,[2],0.0459±0.005
